# From ChEMBL document CHEMBL1201862, “PubChem BioAssay data set” (2004)
# The source made the active and inactive calls.
# What was measured:
# Vero = assay: cells; format: functional; settings: Chlorocebus sabaeus
# [1] = blockers of HIV-1 envelope-mediated cell-cell fusion – cherry-pick, dose response (AID 652057); format: functional, cell-based
# [2] = blockers of HIV-1 ZM109 envelope-driven cell-cell fusion – HeLa effector, CEM target cells, luciferase, cherry-pick, dose response (AID 652058); format: functional, cell-based;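 note: luciferase signal from HIV-1 Env mediated cell-cell fusion of effector and target cells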
# [3] = off-target signal loss in HeLa-CEM21 co-culture – HeLa F-luc CTL cells, cherry-picked, counter-screen for HIV-1 Env fusion inhibitor project, dose response (AID 652040); format: functional, cell-based;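 note: potency for signal decrease marking cytotoxic or nonspecific inhibition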
# [4] = HIV-1 AD8 envelope cell-cell fusion blockers – cherry-pick, dose response (AID 652062); format: functional, cell-based;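 note: luciferase signal from cell-cell fusion driven by HIV-1 clade B AD8 Env; potency is for inhibitors of fusion seen as a drop in luminescence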
# [5] = biological target: T1, Polyadenylate-binding protein 1 (Homo sapiens, UniProt P11940); assay: MLLE domain peptide-binding blockers, IC50 – biochemical, fluorescence polarization, FITC-PAM2 peptide, dose response (AID 602259); format: functional; settings: read-out: IC50_Mean
# [6] = viability loss in CEM21 cells – cell-based, CellTiter-Glo luminescence, cherry-picked, cytotoxicity control for viral fusion inhibitor project, dose response (AID 652042); format: functional;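 note: potency for signal decrease meaning cytotoxicity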
# [7] = biological target: T1, Polyadenylate-binding protein 1; assay: MLLE binding blockers, Cy5 peptide tracer – biochemical, fluorescence polarization, Cy5-PAM2 peptide, secondary, miRNA deadenylation inhibitor project, dose response (AID 602260); format: functional; settings: read-out: IC50_Mean
# HEK293 [8] = assay: cells; settings: Homo sapiens
# HEK293 [9] = assay: cells; settings: Homo sapiens; remark: listed apart in the source
# [10] = biological target: Induced myeloid leukemia cell differentiation protein Mcl-1 (Homo sapiens, UniProt Q07820); format: functional
# Cytochrome P450 2D6 = Cytochrome P450 2D6 (Homo sapiens, UniProt P10635);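 note: CYP2D6 member of a cytochrome P450 panel assay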
# [11] = biological target: T2, Tyrosine-protein phosphatase non-receptor type 7 (Homo sapiens, UniProt P35236); assay: HePTP tyrosine phosphatase activity blockers – biochemical, absorbance, leukemia target, primary screen (AID 521); format: functional
# T2 sequence (P35236 whole entry): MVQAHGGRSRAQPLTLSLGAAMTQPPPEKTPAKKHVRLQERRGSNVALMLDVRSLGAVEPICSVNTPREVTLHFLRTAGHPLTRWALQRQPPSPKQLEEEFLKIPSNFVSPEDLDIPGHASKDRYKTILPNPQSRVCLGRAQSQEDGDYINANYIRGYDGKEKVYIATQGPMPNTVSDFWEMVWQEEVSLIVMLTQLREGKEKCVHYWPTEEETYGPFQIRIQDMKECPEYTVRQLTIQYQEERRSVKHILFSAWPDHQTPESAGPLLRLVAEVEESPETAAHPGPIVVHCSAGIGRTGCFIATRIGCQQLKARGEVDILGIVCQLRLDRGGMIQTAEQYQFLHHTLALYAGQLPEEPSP
# INS1 = assay: INS-1E survival protection against cytokine death – cell-based, luminescence, retest, dose response (AID 449756); format: functional; settings: Rattus norvegicus;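 note: cell death triggered by IL-1 beta plus TNF-alpha plus IFN-gamma mixture; protective hits raise ATP signal compared with cytokine alone wells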
# [12] = biological target: T3, Microphthalmia-associated transcription factor (Homo sapiens, UniProt O75030); assay: reducers of TRPM1 reporter luminescence, concentration series – cell-based, SK-MEL-5, cherry-picked, set 3, MITF inhibitor project, dose response (AID 493073); format: functional;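 note: SK-MEL-5 melanoma cells with luciferase driven by the MITF target TRPM1 promoter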
# T3 sequence (O75030 whole entry): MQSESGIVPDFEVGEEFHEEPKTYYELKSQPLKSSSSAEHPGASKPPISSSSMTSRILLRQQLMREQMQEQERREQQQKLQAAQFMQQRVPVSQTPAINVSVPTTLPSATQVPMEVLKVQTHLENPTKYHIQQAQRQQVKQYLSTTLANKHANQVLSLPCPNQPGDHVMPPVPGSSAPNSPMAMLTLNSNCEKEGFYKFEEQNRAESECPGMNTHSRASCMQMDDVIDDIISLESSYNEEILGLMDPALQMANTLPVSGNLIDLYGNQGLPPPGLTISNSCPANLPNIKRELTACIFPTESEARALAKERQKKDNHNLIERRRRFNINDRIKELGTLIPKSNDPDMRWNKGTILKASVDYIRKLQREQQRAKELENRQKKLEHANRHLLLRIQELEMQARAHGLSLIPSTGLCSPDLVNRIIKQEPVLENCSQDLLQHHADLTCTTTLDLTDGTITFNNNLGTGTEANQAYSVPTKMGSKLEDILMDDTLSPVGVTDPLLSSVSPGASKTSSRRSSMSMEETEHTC
# [13] = viability loss in MITF-independent A375 cells – cell-based, CellTiter-Glo luminescence, dry powder, set 2, counter-screen for MITF inhibitor project, dose response (AID 624489); format: functional; settings: A-375;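 note: actives are compounds lowering A375 viability meaning general cytotoxicity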
# [14] = biological target: T4, Disintegrin and metalloproteinase domain-containing protein 17 (Homo sapiens, UniProt P78536); assay: exosite inhibitors of ADAM17, dose response, biochemical (AID 743260)
# [15] = inhibition of ADAM10 peptide cleavage – biochemical, FRET peptide substrate, recombinant human ADAM10, selectivity assay for ADAM17 exosite inhibitor project, dose response (AID 743259);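 note: ADAM10 enzyme cleaving a FRET peptide substrate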
# [16] = viability of PTEN-deleted HCT116 cells – cell-based, HCT116 PTEN knockout, dose response (AID 1047); format: functional;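 note: HCT116 colon tumor cells with PTEN knocked out; cells exposed to compound for 60 hours before readout; potency for loss of cell viability measured by luminescence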
# [17] = viability of HCT116 lacking mutant beta-catenin – cell-based, human colon tumor, dose response (AID 1045); format: functional;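 note: HCT116 colon tumor cells with beta catenin knocked out; cells exposed to compound for 60 hours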
# [18] = reduced cellular PGC1a acetyl-lysine signal – cell-based, cherry-picked samples, dose response (AID 720514); format: functional;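 note: potency may reflect raised or lowered acetylation signal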
# Estrogen receptor beta = Estrogen receptor beta (Homo sapiens, UniProt Q92731);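 note: recombinant ER-beta bound to coactivator SRC1 peptide in presence of estradiol agonist; inhibitors block coactivator peptide binding and lower the FRET signal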
# [19] = biological target: T5, Rac GTPase-activating protein 1 (Homo sapiens, UniProt Q9H0H5); assay: blockers of MgcRacGAP-driven Rac1 GTP hydrolysis – biochemical, ADP Hunter fluorescence, primary and confirmatory, confirmation (AID 624330); format: functional
# T5 sequence (Q9H0H5 whole entry): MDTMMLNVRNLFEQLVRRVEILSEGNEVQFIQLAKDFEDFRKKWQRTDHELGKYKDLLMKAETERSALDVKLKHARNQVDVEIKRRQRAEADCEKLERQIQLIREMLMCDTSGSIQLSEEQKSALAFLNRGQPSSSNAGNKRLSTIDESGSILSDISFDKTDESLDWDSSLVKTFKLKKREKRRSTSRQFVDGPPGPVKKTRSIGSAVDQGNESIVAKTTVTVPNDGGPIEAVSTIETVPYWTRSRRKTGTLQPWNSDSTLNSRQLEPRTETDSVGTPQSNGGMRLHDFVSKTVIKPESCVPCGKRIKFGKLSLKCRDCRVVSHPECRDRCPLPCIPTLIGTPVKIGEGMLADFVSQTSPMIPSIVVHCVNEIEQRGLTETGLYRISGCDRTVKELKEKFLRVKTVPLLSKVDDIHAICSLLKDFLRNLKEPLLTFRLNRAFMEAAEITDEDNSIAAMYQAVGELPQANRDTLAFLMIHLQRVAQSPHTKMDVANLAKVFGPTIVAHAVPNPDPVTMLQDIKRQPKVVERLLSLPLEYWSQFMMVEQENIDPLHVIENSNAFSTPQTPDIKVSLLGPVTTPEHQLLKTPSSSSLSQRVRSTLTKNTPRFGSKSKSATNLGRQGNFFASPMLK
# [20] = HIV-1 Vif–A3G interaction blockers – biochemical, TR-FRET, GST-Vif 1-94, biotin-A3G peptide, dose response retest, primary screen (AID 1117319); format: functional;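 note: TR-FRET signal of purified GST-Vif binding a biotinylated A3G peptide; inhibitors lower the FRET signal by blocking Vif and A3G binding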
# [21] = biological target: NAD-dependent protein deacylase sirtuin-5, mitochondrial (Homo sapiens, UniProt Q9NXA8); assay: sirtuin-5 deacylation blockers, concentration series – biochemical, fluorescence imaging, cherry-pick, set 5, dose response (AID 720591);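 note: desuccinylation of succinyl peptide AMC substrate read as fluorescence after trypsin release; potency of inhibitors that lower fluorescence and may act on trypsin instead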
# Fatty acid synthase [22] = biological target: T6, Fatty acid synthase (Homo sapiens, UniProt P49327); assay: inhibition of human FAS-TE enzyme activity – biochemical, kinetic fluorescence intensity, dose response (AID 624326); format: functional;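 note: rate of fluorescence rise from hydrolysis of a fluorogenic O-methyl fluorescein ester substrate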
# Fatty acid synthase [23] = biological target: T6, Fatty acid synthase; assay: inhibition of human FAS-TE enzyme activity – biochemical, endpoint fluorescence intensity, uHTS hits, dose response (AID 624327); format: functional;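 note: fluorescence from hydrolysis of an O-methyl fluorescein acyl ester substrate by the enzyme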
# [24] = biological target: T4, Disintegrin and metalloproteinase domain-containing protein 17; assay: inhibition of ADAM17 substrate cleavage – biochemical, quenched FRET substrate, counter-screen for ADAM10 exosite inhibitor project, dose response (AID 743253)
# [25] = biological target: T7, RNA-editing ligase 1, mitochondrial (Trypanosoma brucei brucei, UniProt P86926); assay: inhibition of trypanosome RNA editing ligase – biochemical, fluorescence, Trypanosoma brucei, dose response (AID 1117295); format: functional
# T7 sequence (P86926 whole entry): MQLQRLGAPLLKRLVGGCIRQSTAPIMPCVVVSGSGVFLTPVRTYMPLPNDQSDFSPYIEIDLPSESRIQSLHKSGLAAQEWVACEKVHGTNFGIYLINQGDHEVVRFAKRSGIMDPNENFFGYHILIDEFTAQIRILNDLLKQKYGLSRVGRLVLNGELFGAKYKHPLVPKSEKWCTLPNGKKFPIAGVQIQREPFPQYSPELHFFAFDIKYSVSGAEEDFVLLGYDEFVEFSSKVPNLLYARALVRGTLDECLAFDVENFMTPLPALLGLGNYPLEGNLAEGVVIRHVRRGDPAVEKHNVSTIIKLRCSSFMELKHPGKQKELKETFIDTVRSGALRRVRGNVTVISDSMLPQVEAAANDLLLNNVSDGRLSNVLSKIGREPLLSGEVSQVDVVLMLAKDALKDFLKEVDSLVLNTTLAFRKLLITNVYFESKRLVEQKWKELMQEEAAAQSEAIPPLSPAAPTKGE
# T4 sequence (P78536 whole entry, the tested form may be a part): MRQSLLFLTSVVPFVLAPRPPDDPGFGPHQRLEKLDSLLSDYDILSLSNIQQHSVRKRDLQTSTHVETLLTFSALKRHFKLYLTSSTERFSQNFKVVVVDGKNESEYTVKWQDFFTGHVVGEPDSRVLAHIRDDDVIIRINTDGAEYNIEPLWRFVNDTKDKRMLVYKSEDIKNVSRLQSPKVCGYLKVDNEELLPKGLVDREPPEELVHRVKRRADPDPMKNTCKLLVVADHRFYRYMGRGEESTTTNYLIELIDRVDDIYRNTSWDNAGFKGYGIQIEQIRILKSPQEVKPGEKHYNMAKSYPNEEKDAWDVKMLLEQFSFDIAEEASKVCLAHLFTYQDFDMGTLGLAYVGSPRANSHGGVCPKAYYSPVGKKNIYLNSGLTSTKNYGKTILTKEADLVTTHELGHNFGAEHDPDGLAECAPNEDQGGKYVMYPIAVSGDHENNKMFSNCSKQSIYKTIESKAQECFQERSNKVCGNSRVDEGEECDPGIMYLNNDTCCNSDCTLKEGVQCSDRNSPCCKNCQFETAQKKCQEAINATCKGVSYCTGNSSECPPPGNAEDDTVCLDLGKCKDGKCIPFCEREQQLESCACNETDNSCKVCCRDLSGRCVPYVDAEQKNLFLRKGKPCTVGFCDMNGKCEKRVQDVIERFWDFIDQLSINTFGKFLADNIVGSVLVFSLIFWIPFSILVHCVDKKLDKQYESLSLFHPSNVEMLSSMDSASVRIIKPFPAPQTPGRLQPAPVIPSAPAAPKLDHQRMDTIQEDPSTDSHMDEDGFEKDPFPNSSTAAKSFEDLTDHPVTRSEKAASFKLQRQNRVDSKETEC
# T1 sequence (P11940 whole entry, the tested form may be a part): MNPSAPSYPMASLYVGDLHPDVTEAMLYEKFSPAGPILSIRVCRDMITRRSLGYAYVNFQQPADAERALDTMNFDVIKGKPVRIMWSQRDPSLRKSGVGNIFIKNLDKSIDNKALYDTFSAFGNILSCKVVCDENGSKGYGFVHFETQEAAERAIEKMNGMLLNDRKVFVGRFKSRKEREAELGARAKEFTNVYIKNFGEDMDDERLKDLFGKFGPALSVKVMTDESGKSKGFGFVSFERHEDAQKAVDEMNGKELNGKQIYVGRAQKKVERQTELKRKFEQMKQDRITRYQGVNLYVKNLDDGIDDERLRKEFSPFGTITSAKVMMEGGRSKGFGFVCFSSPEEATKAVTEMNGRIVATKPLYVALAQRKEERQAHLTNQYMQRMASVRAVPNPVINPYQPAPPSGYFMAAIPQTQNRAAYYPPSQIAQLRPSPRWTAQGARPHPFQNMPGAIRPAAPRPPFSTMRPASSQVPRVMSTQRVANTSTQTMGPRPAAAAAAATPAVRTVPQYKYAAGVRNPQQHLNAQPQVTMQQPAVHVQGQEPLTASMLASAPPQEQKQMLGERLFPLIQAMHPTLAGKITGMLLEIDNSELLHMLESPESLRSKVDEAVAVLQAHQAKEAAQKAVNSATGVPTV
# T6 sequence (P49327 whole entry): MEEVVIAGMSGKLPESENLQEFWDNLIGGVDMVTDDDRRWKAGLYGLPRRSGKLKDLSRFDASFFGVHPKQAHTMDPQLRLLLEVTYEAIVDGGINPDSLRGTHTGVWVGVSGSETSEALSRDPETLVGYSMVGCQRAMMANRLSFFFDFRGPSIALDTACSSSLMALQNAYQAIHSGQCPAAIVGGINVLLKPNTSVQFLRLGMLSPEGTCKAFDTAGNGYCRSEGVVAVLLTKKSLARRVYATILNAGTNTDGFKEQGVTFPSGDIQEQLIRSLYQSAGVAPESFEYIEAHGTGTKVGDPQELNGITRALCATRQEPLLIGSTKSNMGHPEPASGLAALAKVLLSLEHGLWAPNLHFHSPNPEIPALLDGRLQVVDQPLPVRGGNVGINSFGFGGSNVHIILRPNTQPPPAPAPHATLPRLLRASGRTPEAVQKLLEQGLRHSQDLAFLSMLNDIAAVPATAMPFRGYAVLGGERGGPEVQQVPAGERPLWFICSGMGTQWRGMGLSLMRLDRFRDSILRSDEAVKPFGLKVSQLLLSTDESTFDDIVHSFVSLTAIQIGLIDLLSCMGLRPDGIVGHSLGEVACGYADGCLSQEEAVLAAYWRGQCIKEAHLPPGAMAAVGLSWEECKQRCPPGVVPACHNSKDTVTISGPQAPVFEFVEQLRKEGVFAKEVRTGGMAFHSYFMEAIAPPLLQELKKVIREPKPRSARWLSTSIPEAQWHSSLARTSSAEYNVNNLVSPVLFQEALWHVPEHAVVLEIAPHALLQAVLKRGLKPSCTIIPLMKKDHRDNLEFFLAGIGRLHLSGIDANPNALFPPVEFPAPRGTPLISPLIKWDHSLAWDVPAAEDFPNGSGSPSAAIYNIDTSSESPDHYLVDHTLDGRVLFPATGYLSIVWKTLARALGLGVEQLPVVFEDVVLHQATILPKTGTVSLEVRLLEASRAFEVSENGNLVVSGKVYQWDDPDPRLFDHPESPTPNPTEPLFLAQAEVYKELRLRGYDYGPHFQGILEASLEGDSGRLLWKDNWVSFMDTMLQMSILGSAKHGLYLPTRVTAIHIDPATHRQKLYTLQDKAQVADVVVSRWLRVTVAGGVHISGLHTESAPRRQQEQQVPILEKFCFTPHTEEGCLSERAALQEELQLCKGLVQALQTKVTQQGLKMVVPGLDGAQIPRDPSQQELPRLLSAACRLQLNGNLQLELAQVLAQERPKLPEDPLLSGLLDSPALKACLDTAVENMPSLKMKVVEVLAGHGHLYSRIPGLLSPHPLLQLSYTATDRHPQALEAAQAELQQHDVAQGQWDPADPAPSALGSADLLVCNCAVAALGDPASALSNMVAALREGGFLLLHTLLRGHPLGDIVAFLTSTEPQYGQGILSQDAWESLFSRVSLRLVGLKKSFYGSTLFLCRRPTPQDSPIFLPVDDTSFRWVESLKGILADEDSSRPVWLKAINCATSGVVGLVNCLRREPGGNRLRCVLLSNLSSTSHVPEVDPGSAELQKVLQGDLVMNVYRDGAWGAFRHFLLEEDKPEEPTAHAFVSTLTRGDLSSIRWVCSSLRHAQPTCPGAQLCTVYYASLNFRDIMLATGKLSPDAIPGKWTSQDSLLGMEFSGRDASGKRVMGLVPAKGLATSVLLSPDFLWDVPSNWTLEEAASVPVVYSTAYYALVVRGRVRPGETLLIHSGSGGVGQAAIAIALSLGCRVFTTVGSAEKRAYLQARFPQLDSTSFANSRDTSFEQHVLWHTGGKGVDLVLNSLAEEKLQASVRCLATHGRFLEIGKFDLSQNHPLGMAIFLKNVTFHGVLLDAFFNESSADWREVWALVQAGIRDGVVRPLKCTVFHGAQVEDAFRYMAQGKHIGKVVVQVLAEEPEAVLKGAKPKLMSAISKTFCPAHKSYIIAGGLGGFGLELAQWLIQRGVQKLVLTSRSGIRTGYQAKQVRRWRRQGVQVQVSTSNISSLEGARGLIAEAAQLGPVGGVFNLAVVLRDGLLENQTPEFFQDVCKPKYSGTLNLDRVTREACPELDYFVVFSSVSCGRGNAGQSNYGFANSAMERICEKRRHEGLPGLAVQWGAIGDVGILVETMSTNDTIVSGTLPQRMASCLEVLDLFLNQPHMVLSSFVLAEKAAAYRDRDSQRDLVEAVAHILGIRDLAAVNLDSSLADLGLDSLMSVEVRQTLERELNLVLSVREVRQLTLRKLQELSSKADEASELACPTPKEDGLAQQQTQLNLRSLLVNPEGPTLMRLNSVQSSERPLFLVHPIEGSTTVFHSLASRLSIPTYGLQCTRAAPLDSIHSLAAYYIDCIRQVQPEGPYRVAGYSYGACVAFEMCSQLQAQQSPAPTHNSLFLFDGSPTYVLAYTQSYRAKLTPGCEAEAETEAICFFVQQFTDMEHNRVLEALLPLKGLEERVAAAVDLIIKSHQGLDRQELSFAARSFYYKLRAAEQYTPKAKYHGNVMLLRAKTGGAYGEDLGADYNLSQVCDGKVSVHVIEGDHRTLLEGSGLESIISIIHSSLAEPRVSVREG
# NAD-dependent protein deacylase sirtuin-5, mitochondrial, sequence (Q9NXA8 whole entry): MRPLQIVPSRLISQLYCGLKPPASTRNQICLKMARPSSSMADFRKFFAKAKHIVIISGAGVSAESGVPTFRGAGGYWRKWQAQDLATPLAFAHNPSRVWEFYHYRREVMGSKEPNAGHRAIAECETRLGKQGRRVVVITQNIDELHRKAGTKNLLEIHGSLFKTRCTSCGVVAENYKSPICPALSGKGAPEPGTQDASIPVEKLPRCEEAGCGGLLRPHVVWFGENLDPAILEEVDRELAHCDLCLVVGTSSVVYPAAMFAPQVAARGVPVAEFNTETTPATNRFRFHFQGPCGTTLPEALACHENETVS
# Induced myeloid leukemia cell differentiation protein Mcl-1, sequence (Q07820 whole entry): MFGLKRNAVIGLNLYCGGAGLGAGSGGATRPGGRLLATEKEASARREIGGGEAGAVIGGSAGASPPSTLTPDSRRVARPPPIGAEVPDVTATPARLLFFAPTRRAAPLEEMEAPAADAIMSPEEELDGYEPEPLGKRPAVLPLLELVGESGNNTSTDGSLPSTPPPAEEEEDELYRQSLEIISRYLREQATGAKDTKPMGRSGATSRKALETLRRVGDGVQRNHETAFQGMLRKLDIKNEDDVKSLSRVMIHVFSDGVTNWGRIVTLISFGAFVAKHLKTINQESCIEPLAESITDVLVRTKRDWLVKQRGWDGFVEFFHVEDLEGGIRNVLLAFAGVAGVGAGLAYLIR
structure (smiles),measurement,setting,value
CCOC(=O)c1c(CSc2ccc(C)cc2)n(C)c2cc(Br)c(O)c(CN(C)C)c12,CC50,Vero,> 25 µM (active)
same,AC50,[1],0.342 µM (active)
same,AC50,[2],0.465 µM (active)
same,AC50,[3],0.452 µM (active)
same,AC50,[4],1.32 µM (active)
same,IC50,[5],> 66 µM (inactive)
same,AC50,[6],58.8 µM (active)
same,IC50,[7],> 66 µM (inactive)
same,EC50,HEK293 [8],> 59.6 µM (inactive)
same,EC50,HEK293 [9],> 59.6 µM (inactive)
same,IC50,[10],2.7 µM (active)
Cc1ccc(C(=O)c2c[nH]nc2-c2cc(Cl)ccc2O)cc1,AC50,Cytochrome P450 2D6,28.2 µM (inconclusive)
same,IC50,[11],> 100 µM (not active)
CN1CCN(C2=C(NS(=O)(=O)c3cccs3)C(=O)c3ccccc3C2=O)CC1,AC50,INS1,5.87 µM (active)
same,AC50,[12],6.98 µM (active)
same,AC50,[13],> 70 µM (inactive)
C=CCn1c(-c2csc3c2CCC(C)C3)n[nH]c1=S (centres undefined),IC50,[14],> 69.4 µM (inactive)
C=CCn1c(S)nnc1-c1csc2c1CCC(C)C2 (centres undefined),IC50,[15],> 69.4 µM (inactive)
CC(C)(C)n1nnnc1C(c1ccc(C#N)cc1)N1CCCC2(CCCCC2)C1 (centres undefined),IC50,[11],> 100 µM (not active)
O=C1CCCCC1C(Nc1ccc(Cl)cc1)c1ccccc1 (centres undefined),IC50,[15],34.3 µM (inactive)
same,IC50,[14],> 69.5 µM (inactive)
Cc1ccccc1-n1nnnc1Sc1nnnn1-c1ccccc1,EC50,[16],4.94 µM (active)
same,EC50,[17],4.42 µM (active)
same,AC50,[18],10.4 µM (active)
CCc1cc2c(=O)n(CC)c(SC(C)C(=O)Nc3c(C)n(C)n(-c4ccccc4)c3=O)nc2s1 (centres undefined),IC50,Estrogen receptor beta,> 50 µM (not active)
CCOc1ccc(C2NC(=O)C(C#N)=C(S)N2c2ccc(OC)cc2)cc1OC (centres undefined),IC50,[19],134 µM (active)
same,IC50,[20],> 100 µM (active)
COc1ccc(OC)c(C2Nc3ccccc3N=C3CC(C)(C)CC(O)=C32)c1 (centres undefined),AC50,[21],> 30 µM (inactive)
COc1ccc(N2CCC(CN=C(S)Nc3cccc(OC)c3)C2)cc1 (centres undefined),IC50,[15],> 69.5 µM (inactive)
COc1ccc(N2CCC(CNC(=S)Nc3cccc(OC)c3)C2)cc1 (centres undefined),IC50,[14],> 69.5 µM (inactive)
CN(Cc1ccccc1)C(c1ccnc2ccccc12)c1nnnn1-c1ccc2c(c1)OCCO2 (centres undefined),AC50,[21],14.2 µM (active)
CCN(CC)CCNc1ccnc2cc(Cl)ccc12,IC50,[11],> 100 µM (not active)
Fc1c(F)c(C(F)(F)F)c(F)c(F)c1N/N=C\c1cccs1,EC50,[16],109 µM (active)
same,IC50,Fatty acid synthase [22],10.2 µM (active)
same,EC50,[17],43.1 µM (active)
same,IC50,Fatty acid synthase [23],10.4 µM (active)
same,IC50,[24],> 69.5 µM (inactive)
COC(=O)C1=C(C)N(Cc2ccccc2C(F)(F)F)C(NCc2ccc3c(c2)OCO3)=NC1c1cccc(Cl)c1 (centres undefined),IC50,[25],> 96.6 µM (inactive)
COC(=O)C1=C(C)N(Cc2ccccc2C(F)(F)F)C(NCc2ccccc2)=NC1c1ccc(Cl)cc1 (centres undefined),IC50,[25],> 96.6 µM (inactive)
